Structures can show the parent of a compound that is named as a salt.
What was measured:
[1] = molecular target: recombinant human TMPRSS2 (Homo sapiens, UniProt O15393); assay: TMPRSS2 activity assay (fluorogenic AMC substrate); settings: read-out: TMPRSS2 IC90
Method: Fluorescence intensity was measured at an excitation wavelength of 380 nm and emission wavelength of 460 nm. […] Half maximal inhibition concentrations (IC50) were calculated using a non-linear regression model.
In a next step, 50 µl of 20 µM BOC-Gln-Ala-Arg-AMC protease substrate (Bachem #4017019) was added and incubated for 2 h at 37°C. Fluorescence intensity was measured after 2 h at an excitation wavelength of 380 nm and emission wavelength of 460 nm in a SynergyTM H1 microplate reader (BioTek) with Gen5 3.04 software.
Therefore, the ability of rhAAT to inhibit recombinant TMPRSS2 was assessed analogous to the neutrophil elastase measurement.
IC50 and IC90 were calculated using a non-linear regression model in GraphPad Prism 9.

[2] = molecular target: T1, human neutrophil elastase (Homo sapiens, UniProt P08246); assay: Neutrophil Elastase activity assay (fluorogenic AMC substrate); type: biochemical; set-up: key to Neutrophil Elastase IC50 / Neutrophil Elastase IC90: - = inactive
T1 construct: purchased Merck Millipore 324681
T1 sequence (P08246 30-247 limits assumed): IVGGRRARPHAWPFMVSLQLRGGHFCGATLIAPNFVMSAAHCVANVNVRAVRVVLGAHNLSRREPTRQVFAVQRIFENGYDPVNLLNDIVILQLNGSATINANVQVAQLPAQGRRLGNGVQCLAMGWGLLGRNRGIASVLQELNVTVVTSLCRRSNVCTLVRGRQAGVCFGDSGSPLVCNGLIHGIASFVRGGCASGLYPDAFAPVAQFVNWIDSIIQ

[3] = molecular target: recombinant human TMPRSS2 enzyme (CusaBio #YP023924HU) (human) (UniProt O15393); assay: cell-based or functional assay
recombinant human TMPRSS2 enzyme (CusaBio #YP023924HU) (human), sequence (O15393 106-492 limits assumed): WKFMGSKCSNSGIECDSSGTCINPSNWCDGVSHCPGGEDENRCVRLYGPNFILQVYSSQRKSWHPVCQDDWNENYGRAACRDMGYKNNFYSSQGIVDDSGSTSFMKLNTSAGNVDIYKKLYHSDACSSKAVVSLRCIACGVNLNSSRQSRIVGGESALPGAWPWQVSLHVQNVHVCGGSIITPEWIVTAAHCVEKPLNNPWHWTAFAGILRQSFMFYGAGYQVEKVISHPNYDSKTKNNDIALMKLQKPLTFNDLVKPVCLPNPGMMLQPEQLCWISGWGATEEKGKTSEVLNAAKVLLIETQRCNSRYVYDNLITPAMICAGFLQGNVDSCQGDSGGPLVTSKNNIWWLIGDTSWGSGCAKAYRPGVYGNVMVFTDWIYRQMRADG

recombinant human TMPRSS2, sequence (O15393 106-492 limits assumed): as above

Row | Compound | IC90 [1] [nM] | Neutrophil Elastase IC90 ([2]; non-linear regression) | Neutrophil Elastase IC50 ([2]; non-linear regression, three independent experiments) | inhibition of neutrophil elastase activity ([2]; result in words, Figure 27) | TMPRSS2 IC50 (TMPRSS2 activity assay, fluorogenic BOC-Gln-Ala-Arg-AMC substrate) [3] [nM]
1 | CN(C)C(=O)COC(=O)Cc1ccc(OC(=O)c2ccc(NC(=N)N)cc2)cc1 [Camostat mesylate] | 9.2 | - | - | did not inhibit | 
2 | Prolastin (Grifols), human plasma-derived A1AT formulation (from UniProt P01009 25-418) |  |  |  |  | 79
3 | recombinant human alpha-1-antitrypsin (rhAAT) glycoprotein secreted from Pichia pastoris mutS strain 1B6 (from UniProt P01009 25-418) |  |  |  |  | 74.1
